Reference: US20230322756A1, “FUSED IMIDAZOLE DERIVATIVE, PREPARATION METHOD THEREFOR, AND MEDICAL USE THEREOF” (JIANGSU HENGRUI MEDICINE CO., LTD., priority 2020, published 2023)

Legend:
[1] = Pharmacokinetic evaluation in mice; assay type: in vivo, C57 mice; conditions: for AUC(0-t) / half-life / Vd/F / CL/F / Cmax: female, C57, mouse, plasma; for AUC(0-t): read-out: Area under curve AUC0-t; for half-life: read-out: Half-life T½ (converted); for Vd/F: read-out: Apparent distribution volume Vz/F; for CL/F: read-out: Clearance CLz/F; for Cmax: read-out: Plasma concentration Cmax
Procedure: The drug concentrations in the plasma of the test animals (mice) at different time points after intragastric (ig) administration/intravenous (iv) injection of the compounds of the present disclosure were determined by an LC/MS/MS method. The pharmacokinetic behavior of the compound of the present disclosure in mice was studied and its pharmacokinetic profile was evaluated.
Thirty-six C57 mice, female, evenly divided into 4 groups, purchased from Beijing Vital River Laboratory Animal Technology Co., Ltd., with animal production license number: SCXK (Shanghai) 2017-0005.
Intragastric administration: the drugs were intragastrically administered to mice at a dose of 2.0 mg/kg and a volume of 20.0 mL/kg.
Intravenous injection administration: the drugs were administered to mice by intravenous injection at a dose of 1.0 mg/kg and a volume of 10.0 mL/kg.
The blood was placed in an EDTA-K2 anticoagulation tube and centrifuged at 10,000 rpm for 1 min (4° C.), and plasma was separated out within 1 h and then stored at −80° C. before being tested. The process from blood collection to centrifugation was performed under an ice bath.
(§1) The content of the test compounds at different concentrations in plasma of mice after the administration was determined: 25 μL of plasma of mice at each time point after the administration was mixed with 200 μL of acetonitrile (containing 50 μL of a solution of internal standard camptothecin (100 ng/mL)); the mixture was vortexed for 1 min, and centrifuged for 10 min (4000 r/min), and 0.5 μL of supernatant was taken for LC/MS/MS analysis.

CYP2C19 = CYP2C19 (Homo sapiens (Human), UniProt P33261); test: Time-dependent inhibition (TDI) of CYP2C19 (S)-mephenytoin site of metabolism in human liver microsomes; assay type: in vitro ADME; conditions: for IC50: (S)-mephenytoin
Chain of CYP2C19 (P33261 whole entry): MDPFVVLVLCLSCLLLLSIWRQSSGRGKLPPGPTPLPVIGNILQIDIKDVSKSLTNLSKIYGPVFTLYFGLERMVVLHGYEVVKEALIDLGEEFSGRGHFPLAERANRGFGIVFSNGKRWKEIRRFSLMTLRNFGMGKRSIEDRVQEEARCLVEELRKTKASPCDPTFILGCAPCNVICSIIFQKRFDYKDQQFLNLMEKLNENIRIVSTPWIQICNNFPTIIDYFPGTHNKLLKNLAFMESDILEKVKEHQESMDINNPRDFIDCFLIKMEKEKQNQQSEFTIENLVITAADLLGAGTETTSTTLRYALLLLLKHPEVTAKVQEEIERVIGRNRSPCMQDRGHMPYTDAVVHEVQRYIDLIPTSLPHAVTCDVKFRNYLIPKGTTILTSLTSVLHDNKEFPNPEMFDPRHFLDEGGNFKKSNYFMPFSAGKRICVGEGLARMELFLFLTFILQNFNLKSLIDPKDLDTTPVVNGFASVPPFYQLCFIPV
Procedure: I. Materials and Instruments • 1. Phosphate buffered saline (20×PBS, purchased from Sangon); • 2. NADPH (ACROS, A2646-71-1); • 3. Human liver microsome (Corning Gentest, Cat No. 452161, Lot No. 905002, Donor36); • 4. ABI QTrap 4000 LC-MS System (AB Sciex); • 5. ZORBAX Extend-C18, 3×50 mm, 3.5 μm (Agilent, USA); • 6. CYP probe substrate ((S)-mephenytoin/20 μM, powder purchased from J&K Scientific Ltd., Cat No. 303768) and positive control inhibitor (ticlopidine, powder purchased from SIGMA, Cat No. T6654-1G).
A 100 mM PBS buffer was prepared. A 15 mM MgCl2 solution and a 10 mM NADPH solution were prepared using the buffer. A 0.5 mg/mL microsome solution was prepared using the 15 mM MgCl2 solution. A 30 mM stock solution was diluted with DMSO to a series of solutions I with concentrations of 30 mM, 10 mM, 3 mM, 1 mM, 0.3 mM, 0.1 mM, 0.03 mM and 0 mM, which were then 10-fold diluted with acetonitrile (ACN) and finally 50-fold diluted with phosphate-buffered solution (PBS) to obtain a series of test working solutions II (60 μM, 20 μM, 6 μM, 2 μM, 0.6 μM, 0.2 μM, 0.06 μM and 0 μM). A 20 μM working solution of (S)-mephenytoin was prepared by dilution with PBS.
The above prepared series of working solutions were well shaken and divided into 50 μL aliquots in corresponding reaction plates (+NADPH group and −NADPH group were set) in triplicate. 20 μL of the liver microsome working solution was added to each 96-well plate. 10 μL of NADPH was added to +NADPH group. The plates were incubated in a water bath at 37° C., and a timer was set on the incubation. After 30 min of incubation, the plates were taken out, and +NADPH group was supplemented with 20 μL of corresponding substrate solutions and −NADPH group with 20 μL of corresponding substrate solutions and 10 μL of NADPH. The plates were incubated in a water bath at 37° C., and a timer was set on the incubation. After 30 min of incubation, the plates were taken out, and the reactions were terminated with 250 μL of an ACN solution containing an internal standard. The plates were shaken on a shaker at 800 rpm for 10 min and centrifuged on a centrifuge at 4000 rpm for 15 min. 100 μL of supernatant and 80 μL of ultrapure water were well mixed and subjected to LC-MS/MS analysis.

[2] = Pharmacokinetic evaluation in dogs; assay type: in vivo; conditions: beagle dogs; for Vd/F / AUC(0-t) / CL/F / half-life / Cmax: male, dog, plasma; for Vd/F: read-out: Apparent distribution volume Vz/F; for AUC(0-t): read-out: Area under curve AUC0-t; for CL/F: read-out: Clearance CLz/F; for half-life: read-out: Half-life T½ (converted); for Cmax: read-out: Plasma concentration Cmax
Procedure: Dogs are the test animals. The drug concentrations in the plasma of dogs at different time points after intragastric (ig) administration/intravenous (iv) injection of the compounds of the present disclosure were determined by an LC/MS/MS method. The pharmacokinetic performance in beagles of the compounds of the present disclosure was studied and the pharmacokinetic profile thereof was evaluated.
Twelve beagle dogs, males, evenly divided into 4 groups, provided by the animal reserve bank (999M-004) of Shanghai Medicilon Inc. All animals were beagle dogs qualified for physical examination and healthy without abnormalities.
Intragastric administration: the dose was 2 mg/kg and the volume was 50.0 mL/kg.
Intravenous injection administration: the dose was 0.5 mg/kg and the volume was 20.0 mL/kg.
The blood was placed in an EDTA-K2 anticoagulation tube and centrifuged at 10,000 rpm for 5 min (4° C.), and plasma was separated out within 1 h and then stored at −80° C. before being tested. Food intake was resumed 3 h after administration.
The process from blood collection to centrifugation was performed under an ice bath.
as §1, with “of beagle dogs” for “of mice”, “determined: 10” for “determined: 25”, “(containing” for “(containing 50 μL of”, “for 7” for “for 10”, “min (18,000” for “min (4000”, “and 6” for “and 0.5”

[3] = po, intragastric administration, 2 mg/kg
[4] = 30 min pre-incubation with NADPH
[5] = 30 min pre-incubation without NADPH
[6] = intravenous injection, 0.5 mg/kg

Compound: O=C(O)c1ccc2nc(CN3CCC(c4cccc5c4O[C@@H](c4ccc(Cl)cc4F)CO5)CC3)n(C[C@@H]3CCO3)c2c1 [Example 4, 2-((4-((S)-3-(4-Chloro-2-fluorophenyl)-2,3-dihydrobenzo[b][1,4]dioxan-5-yl)piperidin-1-yl)methyl)-1-(((S)-oxetan-2-yl)methyl)-1H-benzo[d]imidazole-6-carboxylic acid]
- AUC(0-t) ([1]; intravenous injection, 1 mg/kg): 1870 ng·h/mL
- half-life ([1]; intravenous injection, 1 mg/kg): 1.3 h
- Vd/F [1, 3]: 4.01 L/kg
- AUC(0-t) [1, 3]: 2250 ng·h/mL
- CL/F [1, 3]: 14.8 mL/min/kg
- half-life [1, 3]: 3.1 h
- Cmax [1, 3]: 797 ng/mL
- Apparent distribution volume Vz/F ([1]; intravenous injection, 1 mg/kg): 1.014 L/kg
- Clearance CLz/F ([1]; intravenous injection, 1 mg/kg): 8.9 mL/min/kg
- IC50 (CYP2C19; [4]): > 30 µM
- IC50 (CYP2C19; [5]): > 30 µM
- Apparent distribution volume Vz/F [2, 6]: 0.908 L/kg
- Clearance CLz/F [2, 6]: 1.9 mL/min/kg
- Vd/F [2, 3]: 0.713 L/kg
- AUC(0-t) [2, 3]: 21400 ng·h/mL
- CL/F [2, 3]: 1.6 mL/min/kg
- half-life [2, 3]: 5.3 h
- Cmax [2, 3]: 4040 ng/mL
- AUC(0-t) [2, 6]: 4010 ng·h/mL
- half-life [2, 6]: 5.4 h
- Cmax [2, 6]: 1220 ng/mL

Compound: O=C(O)c1ccc2nc(CN3CCC(c4cccc5c4O[C@@H](c4ccc(Cl)cc4F)CO5)CC3)n(C[C@@H]3CCO3)c2n1 [Example 5, 2-((4-((S)-3-(4-Chloro-2-fluorophenyl)-2,3-dihydrobenzo[b][1,4]dioxan-5-yl)piperidin-1-yl)methyl)-3-((S)-oxetan-2-ylmethyl)-3H-imidazo[4,5-b]pyridine-5-carboxylic acid]
- AUC(0-t) ([1]; intravenous injection, 1 mg/kg): 2190 ng·h/mL
- half-life ([1]; intravenous injection, 1 mg/kg): 1.5 h
- Vd/F [1, 3]: 5.76 L/kg
- AUC(0-t) [1, 3]: 1440 ng·h/mL
- CL/F [1, 3]: 23.1 mL/min/kg
- half-life [1, 3]: 2.9 h
- Cmax [1, 3]: 359 ng/mL
- Apparent distribution volume Vz/F ([1]; intravenous injection, 1 mg/kg): 0.981 L/kg
- Clearance CLz/F ([1]; intravenous injection, 1 mg/kg): 7.55 mL/min/kg
- Apparent distribution volume Vz/F [2, 6]: 0.448 L/kg
- Clearance CLz/F [2, 6]: 1.8 mL/min/kg
- Vd/F [2, 3]: 0.636 L/kg
- AUC(0-t) [2, 3]: 22100 ng·h/mL
- CL/F [2, 3]: 1.7 mL/min/kg
- half-life [2, 3]: 4.9 h
- Cmax [2, 3]: 4430 ng/mL
- AUC(0-t) [2, 6]: 4830 ng·h/mL
- half-life [2, 6]: 3 h
- Cmax [2, 6]: 1740 ng/mL

Compound: C[C@]1(c2ccc(Cl)cc2F)Oc2cccc(C3CCN(Cc4nc5ccc(C(=O)O)cc5n4C[C@@H]4CCO4)CC3)c2O1 [Positive compound 1, reference compound]
- IC50 (CYP2C19; [4]): 2.6 µM
- IC50 (CYP2C19; [5]): 6.4 µM
- IC50 shift at 30 min (CYP2C19; probe (S)-mephenytoin, CYP2C19 (S)-mephenytoin site, read-out: IC50 shift fold): 2.5
